We go through four molecules from article PMC7031696 (Cell chemical biology, 2019).

Data set [1] concerns asynchronous 3D7-A10 parasite cultures. Description: Standard 72-h exposure asexual blood stage susceptibility assay (IC50^72h). In kind it is cell-based, Plasmodium falciparum. As to conditions: read-out: Overall (72hr assay) Mean IC50 (IC50^72h); 72-h exposure, asynchronous 3D7-A10.
Data set [2] in a line: Solubility Assay (UV/vis spectroscopy, filter method). As to conditions: 1 × PBS pH 7.4, 500 μM, UV/vis 280–360 nm minus 800 nm.
Data set [3] concerns Plasmodium falciparum 3D7-A10 parasites. In words: Stage specificity assay (8-h exposure of synchronized stages, IC50^8h). Format: cell-based. Particulars: for Ratio lowest IC50 8hr/IC50 72hr: 3D7-A10; for Stage of peak activity (Figure 6): period when the parasite was most susceptible (lowest IC50^8h).
For data set [4], the system named is synchronized Plasmodium falciparum parasites. Description: Microscopical study of cell morphology after 8-h exposures (Figure S4). In kind it is cell-based. Particulars: 3× the IC50^8h of the most sensitive life stage, 8-h intervals.
Setting [5] is: read-out: Early trophozoites Mean IC50 (IC50^8h), 8-h exposure 16–24 hr, 3D7-A10, survival at 60 h.
[6] abbreviates: read-out: Late trophozoites Mean IC50 (IC50^8h), 8-h exposure 24–32 hr, 3D7-A10, survival at 60 h.
The mark [7] stands for this setting: read-out: Schizonts Mean IC50 (IC50^8h), 8-h exposure 32–40 hr, 3D7-A10, survival at 60 h.
Where [8] appears, read: read-out: Early rings Mean IC50 (IC50^8h), 8-h exposure 0–8 hr, 3D7-A10, survival at 60 h.
Setting [9] is: read-out: Late rings Mean IC50 (IC50^8h), 8-h exposure 8–16 hr, 3D7-A10, survival at 60 h.

Entries after “also recorded” stand apart in the source; their conditions may differ. Where two headings read alike, the source gives them in different places. Where only a bound is given, the exact number is not on record here.

For the molecule `CC(C)(C)c1ccc2c(c1)CN(Cc1ccc(Cl)cc1)CO2` [MMV000442], the IC50 in data set [1] is 37.2 nM; in data set [3] (read-out: Early rings IC50 (IC50^8h), 8-h exposure 0–8 hr, bound given in μM) it was over 8 µM; in data set [3] (setting [5]), 0.176 µM; in data set [3] (read-out: Late rings IC50 (IC50^8h), 8-h exposure 8–16 hr, bound given in μM) it was over 8 µM; in data set [3] (setting [6]), 0.197 µM; in data set [3] (setting [7]), 0.503 µM. In addition, in data set [2], the “Ratio fil./std. (absorbance filtrate/standard)” value was 0.74. Further, the “Ratio lowest IC50 8hr/IC50 72hr” value in data set [3] is given as 4.7. For the same molecule, in data set [3] (8-h exposures, survival curves), the “killing in stage specificity assay” value is on record as “incomplete killing at all asexual blood stages”. Further, the “Stage of peak activity (Figure 6)” value in data set [3] was “trophozoites”. The “Peak Activity (Table S1)” value in data set [3] (stage(s) with the lowest IC50^8h) is on record as “Trophs”.
With `CN(C)Cc1ccc(-c2cc3c(-c4ccc(CN(C)C)cc4)ccnc3[nH]2)cc1.O=C(O)C(F)(F)F` [MMV022224], the IC50 in data set [1] was determined as 199 nM; in data set [3] (setting [8]), 0.838 µM; in data set [3] (setting [5]), 0.542 µM; in data set [3] (setting [9]), 0.845 µM; in data set [3] (setting [6]), 0.752 µM; in data set [3] (setting [7]), 2.49 µM. The digestive vacuole morphology entry in data set [4] is given as “without displaying swollen vacuoles”. Further, in data set [4], the “most susceptible stage by cell morphology” value was “early and late trophozoite stages”. Also, the “Ratio lowest IC50 8hr/IC50 72hr” value in data set [3] was 2.7. For the same molecule, the “overall activity profile (stages on which active)” value in data set [3] (8-h exposures) is “activity exclusively in rings and trophozoites but not in schizonts”. Also, the “Stage of peak activity (Figure 6)” value in data set [3] is “rings and trophozoites”.
With Ferroquine [reference compound], the IC50 in data set [1] was 3.5 nM; in data set [3] (setting [8]), 0.0049 µM; in data set [3] (setting [5]), 0.0232 µM; in data set [3] (setting [9]), 0.0109 µM; in data set [3] (setting [6]), 0.0368 µM; in data set [3] (setting [7]) it was 0.0493 µM. Also, the “Ratio lowest IC50 8hr/IC50 72hr” value in data set [3] worked out at 1.4. Also, the “Stage of peak activity (Figure 6)” value in data set [3] is on record as “early rings; also recorded: ring stages”.
In the case of `CC(C)(C)NCc1cc(Nc2ccnc3cc(Cl)ccc23)c2c(c1O)CCCC2` [Naphtoquine, Naphthoquine, reference compound], the IC50 amounted to 3.2 nM in data set [1]; 0.0042 µM in data set [3] (setting [8]); 0.0195 µM in data set [3] (setting [5]); 0.0081 µM in data set [3] (setting [9]); 0.0292 µM in data set [3] (setting [6]); 0.0428 µM in data set [3] (setting [7]). For the same molecule, in data set [3], the “Ratio lowest IC50 8hr/IC50 72hr” value worked out at 1.3. Moreover, in data set [3], the “Stage of peak activity (Figure 6)” value is listed as “early rings; also recorded: ring stages”.
